Laboratory results: patent US5628328A, “Method for measuring muscle mass” (priority 1995, dated 1997)

Key:
[1] = design: species or system human; settings: in vivo
Description: Normal volunteers with no evidence or history of diabetes mellitus or of cardiac, liver, renal or pulmonary diseases were studied. The subjects consisted of 3 males and 1 female, ranging in age from 31 to 37 years, in body weight from 47 to 92 kg, and in body mass index (BMI) from 19.2 to 25.5. The purpose and possible risks of the study were explained to all subjects, and their voluntary written consent was obtained. The study protocol was approved by the Committee for the Protection of Human Subjects of the Institutional Review Board at Vanderbilt University School of Medicine. All studies were performed at the Clinical Research Center (CRC). Subjects were placed on balanced weight-maintenance diets for at least one week before the start of the study. Meat was excluded from the subjects' diets for three days before the study and during the study.
All studies were performed after a 10-12 hour overnight fast. On the morning of the experiment (6.30 to 7.00 hours), an 18-gauge Angiocatheter™ (Benton Dickinson, Sandy, Utah) was placed in a superficial hand vein of the nondominant arm for blood sampling. The hand was heated to 55° C. to ensure complete arterialization (Abumrad, N.N. et al., "Use of a heated superficial hand vein as an alternative site for the measurement of amino acid concentrations and for the study of glucose and alanine kinetics in man," Metabolism (1981) 30:936-940). In addition, a 16-gauge angiocatheter was inserted into the contralateral forearm vein for the infusion of L-3-[methyl-^2 H3 ]-histidine (MSD Isotopes, Montreal, Canada). Finally, another catheter was threaded retrograde into the brachial vein of the dominant arm and used for sampling of the forearm tissue.
(§1) Each study was four days in duration. Starting at t=0 (8.00 hours), subjects were administered a bolus infusion of L-3-[methyl^2 H3 ]-histidine (D3 -3-methylhistidine) at 0.13 μmol/kg into the forearm vein of the dominant arm. The infusate was passed through a Millex-GS sterilizing filter (0.22 μm; Millipore Products Divisions, Bedford, Mass.) before the infusion. Blood samples were obtained from the superficial hand vein and from the deep forearm vein at 0, 1, 2, 5, 10, 15, 30, 45, 90, 150, 210, 270, 330, and 720 min. postinjection. During this time, the subjects were required to stay at the Clinical Research Center, although they were allowed to ambulate freely within their rooms. Free access to food and drink was allowed after the 330-min sample. After 720 min, the catheters were removed and the patients were allowed to go home. For the following three days, the subjects returned to the CRC each morning before eating for further blood sampling by percutaneous venous puncture at 1,440, 2,880, and 4,320 min postinjection. Urine was collected over 24 hour periods the day before and for three days after tracer infusion.
Blood was collected in heparinized syringes, transferred to tubes containing Na2 EDTA (15 mg/tube), and centrifuged. The plasma obtained was immediately placed on ice. An aliquot of the plasma was processed for determination of 3-methylhistidine concentration as well as the L-3-[methyl-^2 H3 ]-histidine:3-methylhistidine isotope enrichment. The remainder of the plasma was frozen at -70° C. The urine obtained was processed for the determination of creatinine both as a measure of the completeness of the collection (Pencharz, P. B. et al., "The effect of an energy-restricted diet on the protein metabolism of obese adolescents: nitrogen-balance and whole-body nitrogen turnover," Clin. Sci. (1980) 59:13-18), and for the estimation of lean body mass (Blackburn, G. L. et al., "Nutritional and metabolic assessment of hospitalized patients," J. Parenter. Enteral. Nutr. (1977) 1:11-22). […]

[2] = design: species or system human; settings: in vivo; remark: listed apart in the source
Description: as §1
Blood was collected in heparinized syringes, transferred to tubes containing Na2 EDTA (15 mg/tube), and centrifuged. The plasma obtained was immediately placed on ice. An aliquot of the plasma was processed for determination of 3-methylhistidine concentration as well as the L-3-[methyl-^2 H3 ]-histidine:3-methylhistidine isotope enrichment. The remainder of the plasma was frozen at -70° C. […] Urinary 3-methylhistidine concentration and production were also measured (Rathmacher, J. A. et al., "Gas chromatographic-mass spectrometric analysis of stable isotopes of 3-methylhistidine in biological fluids: application to plasma kinetics in vivo," Biol. Mass Spectrom. (1992) 21:560-566). […]

[3] = design: species or system cattle; settings: bovine, in vivo
Description: A minimal model using 4-5 measurements and one compartment rather than three was evaluated. In the minimal model the three pools of the 3-compartment model were combined to form one homogeneous pool of 3-methylhistidine, characterized by a de novo production into the body pool and one exit from the model. The kinetic data between 720 and 4320 min was used for the analysis; this time frame corresponds to apparent linear steady state portion of the decay curve. The limitation of the 1-compartment model is the lost ability to described the entire metabolism of 3-methylhistidine. Only the rate of proteolysis and a total pool size can be estimated. […] (Rathmacher, J. et al., "The use of compartmental models of 3-methylhistidine flux to evaluate skeletal muscle protein turnover in implanted steers," J. Anim. Sci. (1993) 71:135.) However, in cattle the minimal model estimates of 3-methylhistidine production were 30% higher, but the estimates of 3-methylhistidine production were highly correlated (r=0.93, P 0.0001).

Cn1cnc(C[C@H](N)C(=O)O)c1 [3-methylhistidine]
3MH Production [1]: 3.1 µmol/kg/day
L0,1 fractional transfer rate [1]: .004 min⁻¹
L1,2 fractional transfer rate [1]: .06 min⁻¹
L2,3 fractional transfer rate [1]: .002 min⁻¹
L3,2 fractional transfer rate [1]: .009 min⁻¹
M1, compartment mass [1]: 603 nmol/kg
M2, compartment mass [1]: 912 nmol/kg
M3, compartment mass [1]: 7938 nmol/kg
Plasma levels of 3-methylhistidine over time [1]: did not change over the four days of the study
R01 mass transfer rate [1]: 2.2 nmol/kg/min
R12 mass transfer rate [1]: 53 nmol/kg/min
R21 mass transfer rate [1]: 51 nmol/kg/min
R23 mass transfer rate [1]: 9.6 nmol/kg/min
R32 mass transfer rate [1]: 7.9 nmol/kg/min
Size of compartment 2 relative to compartment 1 [1]: 1.5 times
Size of compartment 3 relative to compartment 1 [1]: 13 times
Urinary 3MH loss [1]: 100 % of total
Model 3-methylhistidine production above urinary estimate [2]: 16%
Model 3-methylhistidine production versus urinary production [2]: qualitatively similar
Urinary 3-methylhistidine production versus model estimate [2]: lower than the model estimate
3-methylhistidine production, minimal model above 3-compartment model [3]: 30%
